Data set [1] concerns the target T1, acid ceramidase (Homo sapiens, UniProt Q13510).
T1 construct: Cell lysates overexpressing acid ceramidase were used as the enzyme source; expressed in transfected cells
T1 sequence (Q13510 22-395): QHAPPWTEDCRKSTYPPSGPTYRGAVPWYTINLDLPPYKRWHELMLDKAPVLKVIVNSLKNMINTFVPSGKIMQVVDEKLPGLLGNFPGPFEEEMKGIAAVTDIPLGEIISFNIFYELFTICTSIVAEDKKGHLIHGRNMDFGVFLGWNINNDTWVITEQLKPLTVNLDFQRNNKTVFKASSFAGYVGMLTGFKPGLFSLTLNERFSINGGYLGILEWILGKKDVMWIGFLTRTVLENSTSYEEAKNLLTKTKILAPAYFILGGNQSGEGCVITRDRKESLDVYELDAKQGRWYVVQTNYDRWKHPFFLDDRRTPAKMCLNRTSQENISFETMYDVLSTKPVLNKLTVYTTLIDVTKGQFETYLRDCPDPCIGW
The data set is described as follows: Acid ceramidase inhibition, biochemical fluorescent assay with cell lysates overexpressing acid ceramidase, substrate Rbm14-12. The settings on record: substrate Rbm14-12 6.3 μM, pH 4.5. The method in brief: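 IC50 derived by four-parameter fitting of fluorescence (ex360 nm, em446 nm) produced after 1 hr in methanol/NaIO4/glycine stop buffer, pH 10.6. Reaction: 6.3 μM Rbm14-12, 1 hr RT, following 1 hr RT compound preincubation with 10 μg overexpressing-cell lysate protein in pH 4.5 NaAC/NaCl buffer.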

Data set [2] can be described thus: Compound solubility in water.

Values after ≈ are worked out from the molar mass of the structure shown.

In general, IC50 refers to the concentration needed to halve the response being measured. The term solubility denotes how much of the substance goes into solution per volume. A high value points to a readily soluble substance. In turn, `CN1C2CCC1CN(c1cccc3c1ncn3C(=O)NCCC1CCC(F)(F)C1)C2` (centres unmarked) [Example 289, N-(2-(3,3-Difluorocyclopentyl)ethyl)-4-(8-methyl-3,8-diazabicyclo[3.2.1]octan-3-yl)-1H-benzo[d]imidazole-1-carboxamide] showed an IC50 in data set [1] of 200 to 1000 nM. The same compound gave a solubility in data set [2] of 39 µg/mL (≈ 93.4 µM).
The compound `O=C(NCCC1CCC(F)(F)C1)n1cnc2c(N3CCN4CCCC4C3)cccc21` (centres unmarked) [Example 290, N-(2-(3,3-Difluorocyclopentyl)ethyl)-4-(hexahydropyrrolo[1,2-a]pyrazin-2(1H)-yl)-1H-benzo[d]imidazole-1-carboxamide] returned an IC50 in data set [1] of 200 to 1000 nM. Moreover, the concentration in solution in data set [2] (solubility) came to 28 µg/mL (≈ 67.1 µM).
`CCN1CCN(c2cccc3c2ncn3C(=O)NCCC2CCC(F)(F)C2)CC1` (centres unmarked) [Example 291, N-(2-(3,3-Difluorocyclopentyl)ethyl)-4-(4-ethylpiperazin-1-yl)-1H-benzo[d]imidazole-1-carboxamide]: in data set [1], the IC50 was 200 to 1000 nM. For the same compound, in data set [2], the solubility was 20 µg/mL (≈ 49.3 µM).
On to `CN1CC2CCC1CN2c1cccc2c1ncn2C(=O)NCCC1CCC(F)(F)C1` (centres unmarked) [Example 292, N-(2-(3,3-Difluorocyclopentyl)ethyl)-4-(5-methyl-2,5-diazabicyclo[2.2.2]octan-2-yl)-1H-benzo[d]imidazole-1-carboxamide], for which the IC50 in data set [1] is 200 to 1000 nM. This compound had a solubility in data set [2] of 36 µg/mL (≈ 86.2 µM).
The like results for `CN1CC2CC1CN2c1cccc2c1ncn2C(=O)NCCC1CCC(F)(F)C1` (centres unmarked) [Example 293, N-(2-(3,3-difluorocyclopentyl)ethyl)-4-(5-methyl-2,5-diazabicyclo[2.2.1]heptan-2-yl)-1H-benzo[d]imidazole-1-carboxamide] were, in that order, 200 to 1000 nM and 39 µg/mL (≈ 96.7 µM).
For `CN1CC2CC1CN2c1cccc2c1ncn2C(=O)NCCOc1ccccc1` (centres unmarked) [Example 295, 4-(5-Methyl-2,5-diazabicyclo[2.2.1]heptan-2-yl)-N-(2-phenoxyethyl)-1H-benzo[d]imidazole-1-carboxamide], in that order: less than 200 nM and 33 µg/mL (≈ 84.3 µM).
In the case of `CN1CC(N2CCN(c3cccc4c3ncn4C(=O)NCCOc3ccccc3)CC2)C1` [Example 296, 4-(4-(1-Methylazetidin-3-yl)piperazin-1-yl)-N-(2-phenoxyethyl)-1H-benzo[d]imidazole-1-carboxamide], in data set [1], the IC50 is less than 200 nM. For the same compound, in data set [2], the solubility was 36 µg/mL (≈ 82.8 µM).
For `CC(C)C#CCNC(=O)n1cnc2c(N3CC(N4CCN(C)CC4)C3)cccc21` [Example 298, N-(4-Methylpent-2-ynyl)-4-(3-(4-methyl-piperazin-1-yl)azetidin-1-yl)-1H-benzo[d]imidazole-1-carboxamide], in that order: less than 200 nM and 27 µg/mL (≈ 68.4 µM).
The like results for `CC(C)C#CCNC(=O)n1cnc2c(N3CCN(C4CN(C)C4)CC3)cccc21` [Example 299, 4-(4-(1-Methylazetidin-3-yl)piperazin-1-yl)-N-(4-methylpent-2-yn-1-yl)-1H-benzo[d]imidazole-1-carboxamide] were, in that order, less than 200 nM and 30 µg/mL (≈ 76 µM).
The like results for `CNC1CCN(c2cccc3c2ncn3C(=O)NCC#CC(C)C)C1` (centres unmarked) [Example 300, 4-(3-(Methylamino)pyrrolidin-1-yl)-N-(4-methylpent-2-ynyl)-1H-benzo[d]imidazole-1-carboxamide] were, in that order, less than 200 nM and 29 µg/mL (≈ 85.4 µM).
For `CC(C)C#CCNC(=O)n1cnc2c(N3CC4CC3CN4C)cccc21` (centres unmarked) [Example 301, 4-(5-Methyl-2,5-diazabicyclo[2.2.1]heptan-2-yl)-N-(4-methylpent-2-ynyl)-1H-benzo[d]imidazole-1-carboxamide], in data set [1], the IC50 lay in the range of 200 to 1000 nM. In data set [2], this compound gave a solubility of 34 µg/mL (≈ 96.7 µM).
For `CC(C)C#CCNC(=O)n1cnc2c(N3CCN4CCCC4C3)cccc21` (centres unmarked) [Example 302, 4-(Hexahydropyrrolo[1,2-a]pyrazin-2(1H)-yl)-N-(4-methylpent-2-yn-1-yl)-1H-benzo[d]imidazole-1-carboxamide], in that order: less than 200 nM and 22 µg/mL (≈ 60.2 µM).
The like results for `CC(C)C#CCCNC(=O)n1cnc2c(N3CCN(C)CC3)cccc21` [Example 303, N-(5-Methylhex-3-yn-1-yl)-4-(4-methylpiperazin-1-yl)-1H-benzo[d]imidazole-1-carboxamide] were, in that order, 200 to 1000 nM and 28 µg/mL (≈ 79.2 µM).
For `CC(C)C#CCNC(=O)n1cnc2c(N3CC4CCC3CN4C)cccc21` (centres unmarked) [Example 304, 4-(5-Methyl-2,5-diazabicyclo[2.2.2]octan-2-yl)-N-(4-methylpent-2-ynyl)-1H-benzo[d]imidazole-1-carboxamide], the IC50 in data set [1] lay within 200 to 1000 nM. Moreover, the solubility in data set [2] was 27 µg/mL (≈ 73.9 µM).
The like results for `CCC#CCNC(=O)n1cnc2c(N3CCN(C)CC3)cccc21` [Example 305, 4-(4-Methylpiperazin-1-yl)-N-(pent-2-yn-1-yl)-1H-benzo[d]imidazole-1-carboxamide] were, in that order, 200 to 1000 nM and 27 µg/mL (≈ 83 µM).
Consider `CC(C)C#CCNC(=O)n1cnc2c(N3CCN(C)C(CC#N)C3)cccc21` (centres unmarked) [Example 306, 4-(3-(Cyanomethyl)-4-methylpiperazin-1-yl)-N-(4-methylpent-2-ynyl)-1H-benzo[d]imidazole-1-carboxamide], for which the IC50 in data set [1] is less than 200 nM. For the same compound, the concentration in solution in data set [2] (solubility) came to 23 µg/mL (≈ 60.8 µM).
The like results for `CC(C)C#CCNC(=O)n1cnc2c(N3CCN(C4COC4)CC3)cccc21` [Example 307, N-(4-Methylpent-2-yn-1-yl)-4-(4-(oxetan-3-yl)-piperazin-1-yl)-1H-benzo[d]imidazole-1-carboxamide] were, in that order, less than 200 nM and 20 µg/mL (≈ 52.4 µM).
For `CC(C)C#CCNC(=O)n1cnc2c(N3CCN(CCF)CC3)cccc21` [Example 309, 4-(4-(2-Fluoroethyl)piperazin-1-yl)-N-(4-methylpent-2-yn-1-yl)-1H-benzo[d]imidazole-1-carboxamide], in that order: less than 200 nM and 22 µg/mL (≈ 59.2 µM).
For `CC(C)C#CCNC(=O)n1cnc2c(N3CCN(CCC(F)(F)F)CC3)cccc21` [Example 310, N-(4-Methylpent-2-yn-1-yl)-4-(4-(3,3,3-trifluoropropyl)piperazin-1-yl)-1H-benzo[d]imidazole-1-carboxamide], in that order: less than 200 nM and 4 µg/mL (≈ 9.49 µM).
On to `CC(C)C#CCNC(=O)n1cnc2c(N3CCC4(CCCN4C)CC3)cccc21` [Example 311, 4-(1-Methyl-1,8-diazaspiro[4.5]decan-8-yl)-N-(4-methylpent-2-yn-1-yl)-1H-benzo[d]imidazole-1-carboxamide], for which, in data set [1], the IC50 was less than 200 nM. Further, the solubility in data set [2] was 31 µg/mL (≈ 78.8 µM).
The like results for `CC(C)C#CCNC(=O)n1cnc2c(N3CCC4CN(C)CC4CC3)cccc21` (centres unmarked) [Example 312, 4-(2-Methyloctahydropyrrolo[3,4-d]azepin-6(1H)-yl)-N-(4-methylpent-2-yn-1-yl)-1H-benzo[d]imidazole-1-carboxamide] were, in that order, less than 200 nM and 24 µg/mL (≈ 61 µM).
The like results for `CC(C)C#CCNC(=O)n1cnc2c(N3CCC4(CC3)CCN4C)cccc21` [Example 313, 4-(1-Methyl-1,7-diazaspiro[3.5]nonan-7-yl)-N-(4-methylpent-2-yn-1-yl)-1H-benzo[d]imidazole-1-carboxamide] were, in that order, less than 200 nM and 29 µg/mL (≈ 76.4 µM).
The like results for `CN1CCN(C2CN(c3cccc4c3ncn4C(=O)NCCOc3ccccc3)C2)CC1` [Example 314, 4-(3-(4-Methylpiperazin-1-yl)azetidin-1-yl)-N-(2-phenoxyethyl)-1H-benzo[d]imidazole-1-carboxamide] were, in that order, less than 200 nM and 35 µg/mL (≈ 80.5 µM).
In data set [1], `CNC1CCN(c2cccc3c2ncn3C(=O)NCCOc2ccccc2)C1` (centres unmarked) [Example 315, 4-(3-(Methylamino)pyrrolidin-1-yl)-N-(2-phenoxyethyl)-1H-benzo[d]imidazole-1-carboxamide] returned a half-inhibitory concentration (IC50) of less than 200 nM. The same compound had a solubility in data set [2] of 30 µg/mL (≈ 79.1 µM).
For `O=C(NCCOc1ccccc1)n1cnc2c(N3CCN4CCCC4C3)cccc21` (centres unmarked) [Example 316, 4-(Hexahydropyrrolo[1,2-a]pyrazin-2(1H)-yl)-N-(2-phenoxyethyl)-1H-benzo[d]imidazole-1-carboxamide], in that order: less than 200 nM and 27 µg/mL (≈ 66.6 µM).
The like results for `CN1CCN(c2cccc3c2ncn3C(=O)NCCOc2ccccc2)CC1CC#N` (centres unmarked) [Example 317, 4-(3-(Cyanomethyl)-4-methylpiperazin-1-yl)-N-(2-phenoxyethyl)-1H-benzo[d]imidazole-1-carboxamide] were, in that order, less than 200 nM and 26 µg/mL (≈ 62.1 µM).
The like results for `CN1CCN(C2CN(c3cccc4c3ncn4C(=O)NCCC3CCC(F)(F)C3)C2)CC1` (centres unmarked) [Example 318, N-(2-(3,3-Difluorocyclopentyl)ethyl)-4-(3-(4-methylpiperazin-1-yl)azetidin-1-yl)-1H-benzo[d]imidazole-1-carboxamide] were, in that order, 200 to 1000 nM and 40 µg/mL (≈ 89.6 µM).
As to `COc1nc2cc(N3CCN(C4CN(C)C4)CC3)c(F)cc2n1C(=O)NCCCc1ccccc1` [Example 319a, 6-Fluoro-2-methoxy-5-(4-(1-methylazetidin-3-yl)piperazin-1-yl)-N-(3-phenylpropyl)-1H-benzo[d]imidazole-1-carboxamide], the IC50 in data set [1] was 200 to 1000 nM. Moreover, the solubility in data set [2] was found to be 35 µg/mL (≈ 72.8 µM).

Values taken from US20220380319A1 (Bial - R&D Investments, S.A., priority 2019, published 2022).
